In patent publication US20090156657A1, “ANTI-INFLAMMATORY COMPOSITION” (Ajinomoto Co., Inc., priority 2006, published 2009):

Experiments:
NF-κB (p65) = experiment: Activation of NF-κB (nuclear translocation of p65) in HAEC stimulated with high glucose; type: cell-based, human; settings: pre-treatment 5 and 10 μM 24 h, 25 mM glucose 2 h, FIG. 1
Protocol: In the present invention, the term “suppression of NF-κB activation” means suppression of the translocation of NF-κB into the nucleus. The suppression of the translocation of NF-κB into the nucleus can be confirmed by the method described in Example 1. To be specific, a test substance is added to a culture medium of human aortic endothelial cells, the cells are incubated for a predetermined time, the nucleus is extracted from the aforementioned cells stimulated with glucose, and activated NF-κB (p65) translocated into the nucleus is detected. Using the cells before glucose stimulation, wherein NF-κB is not activated, as a negative control and the cells stimulated with glucose and free of addition of a test substance as a positive control, when the detection level of the aforementioned p65 is closer to the negative control than to the positive control, NF-κB activation is evaluated to have been suppressed.
Human aortic endothelial cells (HAEC) were purchased from Clonetics Corp, and the cells cultured for 3-4 passages (37° C., under 5% carbon dioxide gas atmosphere) were used for the experiment. […] Nucleus was extracted from the cells using Nuclear Extract Kit (Active Motif), and then the activated NF-κB (p65) translocated into the nucleus was detected by TransAM NF-κB p65 Kit (Active Motif).

VCAM-1 mRNA = VCAM-1 mRNA expression in HAEC by real-time PCR; type: cell-based, human; settings: 10 μM 24 h, 25 mM glucose 3 h, GAPDH internal standard, FIG. 3A
Protocol: HAEC cells pre-treated with 10 μM of CS or FS for 24 hours were stimulated with 25 mM glucose for 3 hours, and total RNA was extracted with Isogenkit (NIPPON GENE CO., LTD.). From 1 μg of RNA, cDNA was synthesized using 100 U/mL of reverse transcriptase (TAKARA BIO INC.) and 0.1 μM of oligo (dT)-adapter (TAKARA BIO INC.) (total volume of reaction mixture; 50 μL) (42° C., 40 minutes). Real-time PCR was performed using 7300 Real Time PCR system (Applied Biosystems Japan Ltd.) and the PCR product was detected by SYBER Green I.
PCR reaction composition (RT-PCRkit, TAKARA BIO INC.): 12.5 μL Premix Ex Taq, 2.5 μL SYBER Green I, synthesis primer, ROX reference dye, cDNA (corresponding to 20 ng of total RNA), final reaction volume; 25 μL
Primers having the following sequences were used.
PCR was conducted under the following conditions.
thermal denaturation: at 95° C. for 15 seconds, extension reaction: 40 cycles (3 seconds at 95° C., 31 seconds at 60° C.)
Expression amounts of VCAM-1 and MCP-1 mRNA were calculated using GAPDH as the internal standard.

[1] = tested on: IBD model mice (IL-10 deficient cell-transplanted SCID mice); experiment: Inflammatory bowel disease (IBD) model mouse: large intestine and blood cell counts; type: in vivo; settings: diet 3 weeks, vs Control group
Description: Immunopharmacol., 5, 993-1006 (2005)).
4 days before IL-10 deficient cell transplantation, total 40 SCID mice (7-week-old, were divided into the following 4 groups 1) to 4) (10 mice in each group) and acclimation to a control diet was simultaneously started. Immediately after cell transfer, the feed was changed to the test diet shown in Table 4, and free ingestion was allowed for 3 weeks. The safflower seed extract powder was the same as that in Example 8, and contained 50 wt % of γ-cyclodextrin. N-Feruloylserotonin (FS) was synthesized according to the method of Experimental Example 1. During the test diet ingestion period, the body weight, the amount of ingested feed and the amount of water drunk were measured 3 times a week to monitor the onset of the disease.
1) Normal group (normal SCID mice×control diet) 2) Control group (IL-10 deficient cell-transplanted SCID mice×control diet) 3) SSE group (IL-10 deficient cell-transplanted SCID mice×SSE diet*) 4) FS group (IL-10 deficient cell-transplanted SCID mice×FS diet**) *containing FS and p-coumaroyl serotonin (CS) at 0.10 and 0.13 wt %, respectively (based on aglycone) (total serotonin derivative content=[…]) **containing 0.4 wt % of FS aglycone
After the completion of the test diet ingestion period, blood samples were collected under anesthesia, and the length of the isolated large intestine (appendix—anus) and the weight thereof (after washing the contents) were measured. Using the obtained data, t-test was first conducted between the Normal group and the Control group and, after confirmation of the effectiveness of the test, variance analyses were performed between the Control group and each of SSE and FS groups, and the effect of the test substance was compared by Dunnett-test.

[2] = tested on: U-937 monocyte cells / HAEC; experiment: Monocyte (U-937) adhesion to HAEC cells; type: cell-based, human; settings: HAEC pre-incubated 5 or 10 μM 24 h, 25 mM glucose 4 h; FIG. 5
Protocol: HAEC cells proliferated to confluence in a 24 well microplate were pre-incubated with CS and FS (5 or 10 μM each) for 24 hours and stimulated with 25 mM glucose for 4 hours. The cell layer was washed with Hanks solution, and then a suspension (1×10^6/mL, 200 μL) of U-937 monocyte cells (purchased from ATCC) was added, and the mixture was incubated at 37° C. for 30 minutes. After washing again, the cells were fixed with 1% para-formaldehyde and the number of U-937 cells attached onto HAEC was counted under a microscope (20 fields). The experiment was performed 3 times and the results are shown as an average value thereof. An experiment using fluorescence-labeled U-937 cells was also performed. To be specific, U-937 cells were incubated (37° C., 1 hour) in the presence of 10 μM 2′,7′-bis(2-carboxyethyl)-5(6)-carboxyfluorescein acetoxymethylester (BCECF-AM, Molecular Probes) and washed by centrifugation. Fluorescence-labeled U-937 cells (1×10^6/mL) were added to HAEC cells, and the mixture was incubated at 37° C. for 1 hour. The floating U-937 cells were removed, the plate was washed with PBS buffer and treated with 1% Triton X for 2 hours. The fluorescence amount of the attached cells was quantified (Ex. 503 nm, Em. 525 nm) using a fluorescence plate reader (Bio-Rad, Fluoromark).

blood NOx = experiment: IBD model mouse: blood NOx concentration; type: in vivo; settings: IBD model mice, diet 3 weeks, vs Control group; FIG. 13
Protocol: By the activation of leukocytes in an inflammatory response, a large amount of NO is produced by the cells, and the blood concentration of NOx, a metabolite, increases. It is known that blood NOx concentration becomes one index of inflammatory response in living organisms due to this mechanism (Yuka Ikenoue et al., International Immunopharmacology 5 (2005) 993-1006). The NOx concentration of the blood obtained in Example 10 was measured using an “Nitric Oxide Quantitation Kit (ACTIVE MOTIF)”.

COc1cc(/C=C/C(=O)NCCc2c[nH]c3ccc(O)cc23)ccc1O [FS, N-feruloyl serotonin]
nuclear translocation of p65 (activation of NF-κB) (NF-κB (p65)): significantly suppressed | expression amount of VCAM-1 mRNA (VCAM-1 mRNA): significantly suppressed the increase | large intestine weight ([1]; FIG. 11B): significantly lower values | large intestine weight per unit intestine length ([1]; FIG. 11C): significantly lower values | platelet count ([1]; FIG. 12B): significantly lower | leukocyte count ([1]; not statistically significant, FIG. 12A): tendency toward lower values | neutrophil count ([1]; not statistically significant, FIG. 12C): tendency toward lower values | monocyte count ([1]; not statistically significant, FIG. 12D): tendency toward lower values | number of U-937 cells attached onto HAEC (cell count) [2]: decreased the number of attached cells in a serotonin derivative dose-dependent manner | blood NOx concentration (blood NOx): tendency toward decrease
